# Test results taken from patent US20090118286A1, “Heterobicyclic Acrylamides” (Bayer Cropscience AG, priority 2005, published 2009).
# Experiment: log P determination by HPLC (EEC Directive 79/831 Annex V.A8, gradient method)
# Format: physicochemical
SMILES,Physical data: logP,Physical data (logP),also measured
Cc1csc2nc(-c3ccccc3Cl)c(/C=C/C(=O)NCC(F)(F)F)n12 [Example 0888],2.36,–,–
CC(C)CCNC(=O)/C=C/c1c(-c2ccccc2Cl)nc2sc(-c3ccc(C(F)(F)F)cc3)nn12 [Example 0842],4.72,–,–
CC(NC(=O)/C=C/c1c(-c2ccc(Cl)nc2)nc2sc(C(F)(F)F)nn12)C(F)(F)F (racemic) [Example 0935],3.32,–,–
COc1ccc(-c2nc3sc(C(F)(F)F)nn3c2/C=C/C(=O)NOC(C)c2ccccc2)cc1OC (stereo not drawn) [Example 0708],3.37,–,–
CCC(CC)NC(=O)/C=C/c1c(-c2ccc(Cl)cc2Cl)nc2sc(C(F)(F)F)nn12 [Example 0567],–,–,Physical data: log P: 4.32
COCc1nn2c(/C=C/C(=O)Nc3ccc(C(F)(F)F)cc3)c(-c3ccccc3Cl)nc2s1 [Example 0835],3.99,–,–
CCC(CC)NC(=O)/C=C/c1c(-c2cccc(Cl)c2)nc2sc(C(F)(F)F)nn12 [Example 0134],–,4.27,–
C=CCN(C)C(=O)/C=C/c1c(-c2cccc(C(F)(F)F)c2)nc2sc(C(F)(F)F)nn12 [Example 0431],–,–,Physical data: log P: 4.22
O=Cc1c(-c2ccc(Cl)nc2)nc2sc(C(F)(F)F)nn12 [IVA123],–,2.54,–
"CC(NC(=O)/C=C/c1c(-c2ccccc2Cl)nc2sc(C(F)(F)F)nn12)C(F)(F)F (single isomer, unassigned) [Example 0184]",–,3.63,–
O=C(O)/C=C/c1c(-c2ccc(F)cc2Cl)nc2sc(C(F)(F)C(F)F)nn12 [VA134],–,3.01,–
COCc1nn2c(C=CC(=O)NC(C(C)C)C(F)(F)F)c(-c3ccccc3Cl)nc2s1 (stereo not drawn) [Example 0818],3.54,–,–
CC(C)NC(=O)/C=C/c1c(-c2ccccc2Cl)nc2sc(C(F)(F)C(F)(F)F)nn12 [Example 0959],3.66,–,–
CC(C)NC(=O)/C=C/c1c(-c2cccc(Cl)c2)nc2sc(C(F)(F)F)nn12 [Example 0078],–,3.67,–
O=C(/C=C/c1c(-c2cccc(Cl)c2)nc2sc(C(F)(F)F)nn12)NC1CCCCC1 [Example 0085],–,4.46,–
CC(C)C(C)NC(=O)/C=C/c1c(-c2cccc(Cl)c2)nc2sc(C(F)(F)F)nn12 (stereo not drawn) [Example 0094],–,4.32,–
CC(ONC(=O)/C=C/c1c(-c2cccc(Cl)c2)nc2sc(C(F)(F)F)nn12)c1ccccc1 (stereo not drawn) [Example 0132],–,4.23,–
CC(ONC(=O)/C=C/c1c(-c2ccc(F)cc2)nc2sc(C(F)(F)F)nn12)c1ccccc1 (stereo not drawn) [Example 0355],–,–,Physical data: log P: 3.81
COc1ccc(-c2nc3sc(C(F)(F)F)nn3c2/C=C/C(=O)O)cc1OC [VA-10],–,2.43,–
CCC(NC(=O)/C=C/c1c(-c2ccc(OC)c(OC)c2)nc2sc(C(F)(F)F)nn12)C1CCCCC1 (stereo not drawn) [Example 0691],4.46,–,–
O=C(O)/C=C/c1c(-c2cncc(Br)c2)nc2sc(C(F)(F)F)nn12 [VA117],–,2.54,–
COCc1nn2c(/C=C/C(=O)NC3CCCC3)c(-c3ccccc3Cl)nc2s1 [Example 0831],2.8,–,–
O=Cc1c(-c2ccccc2Cl)nc2scnn12 [IVA110],–,1.79,–
CCNC(=O)/C=C/c1c(-c2ccccc2Cl)nc2sc(C(F)(F)F)nn12 [Example 0147],–,2.82,–

SMILES,Physical data: logP,Physical data (logP),also measured
CC(C)NC(=O)/C=C/c1c(-c2ccc(Cl)nc2)nc2sc(C(F)(F)F)nn12 [Example 0933],2.85,–,–
CCC(NC(=O)C=Cc1c(-c2ccccc2Cl)nc2sc(C(F)(F)F)nn12)c1ccccc1 (stereo not drawn) [Example 0190],–,4.08,–
Cc1cn2c(/C=C/C(=O)NC(C)C(F)(F)F)c(-c3ccccc3Cl)nc2s1 (stereo not drawn) [Example 0861],2.85,–,–
O=Cc1c(-c2ccc(-c3ccc(Cl)cc3)cc2)nc2sc(C(F)(F)F)nn12 [IVA119],–,4.63,–
COCC(C)NC(=O)/C=C/c1c(-c2ccccc2Cl)nc2sc(C(F)(F)F)nn12 (racemic) [Example 0169],–,2.99,–
COCc1nn2c(/C=C/C(=O)NCCC(C)C)c(-c3ccccc3Cl)nc2s1 [Example 0820],3.12,–,–
CC(ONC(=O)/C=C/c1c(-c2ccc(Cl)cc2Cl)nc2sc(C(F)(F)F)nn12)c1ccccc1 (stereo not drawn) [Example 0565],–,–,Physical data: log P: 4.23
O=C(/C=C/c1c(-c2ccccc2Cl)nc2sc(-c3ccc(C(F)(F)F)cc3)nn12)Nc1ccc(C(F)(F)F)cc1 [Example 0857],5.61,–,–
O=C(/C=C/c1c(-c2cccc(C(F)(F)F)c2)nc2sc(C(F)(F)F)nn12)N1CCCCC1 [Example 0435],–,–,Physical data: log P: 4.51
CC(C)(C)c1nn2c(/C=C/C(=O)NCC(F)(F)F)c(-c3ccccc3Cl)nc2s1 [Example 0800],3.61,–,–
CC(COc1ccccc1)NC(=O)/C=C/c1c(-c2cccc(C(F)(F)F)c2)nc2sc(C(F)(F)F)nn12 (stereo not drawn) [Example 0407],–,–,Physical data: log P: 4.67
CC(C)(C)NC(=O)/C=C/c1c(-c2ccccc2Cl)nc2sc(C(F)(F)F)nn12 [Example 0150],–,3.72,–
COCc1nn2c(/C=C/C(=O)Nc3ccc(Cl)cc3)c(-c3ccccc3Cl)nc2s1 [Example 0833],3.87,–,–
O=C(O)/C=C/c1c(-c2ccc(OCc3ccccc3)cc2)nc2sc(C(F)(F)F)nn12 [VA122],–,3.73,–
Cc1cn2c(/C=C/C(=O)NC3CC3)c(-c3ccccc3Cl)nc2s1 [Example 0873],2.02,–,–
CC(C)NC(=O)/C=C/c1c(-c2ccccc2Cl)nc2sc(-c3ccc(C(F)(F)F)cc3)nn12 [Example 0846],3.96,–,–
O=Cc1c(-c2ccc(-c3ccccc3)cc2)nc2sc(C(F)(F)F)nn12 [IVA118],–,4.08,–
O=Cc1c(-c2nccs2)nc2sc(C(F)(F)C(F)(F)F)nn12 [IVA114],–,3.03,–
CCC(CC)NC(=O)/C=C/c1c(-c2cccc(C(F)(F)F)c2)nc2sc(C(F)(F)F)nn12 [Example 0428],–,–,Physical data: log P: 4.41
O=C(O)/C=C/c1c(-c2nccs2)nc2sc(C(F)(F)C(F)(F)F)nn12 [VA116],–,2.97,–
O=C(O)/C=C/c1c(-c2ccc(Oc3ccc(Cl)cc3)cc2)nc2sc(C(F)(F)F)nn12 [VA124],–,4.22,–
O=C(/C=C/c1c(-c2ccc(Cl)cc2Cl)nc2sc(C(F)(F)F)nn12)N1CCCCC1 [Example 0574],–,–,Physical data: log P: 4.31
CC(C)(NC(=O)/C=C/c1c(-c2ccc(F)cc2Cl)nc2sc(C(F)(F)F)nn12)C(F)(F)F [Example 0915],4.11,–,–
CC(C)(C)c1nn2c(/C=C/C(=O)NC3CCC3)c(-c3ccccc3Cl)nc2s1 [Example 0808],3.52,–,–
